Data taken from the NIST ThermoML archive (doi:10.1016/j.jct.2012.08.014).

Settings: Liquid, Vibrating tube method

CCC(O)CO (stereo not drawn) [1,2-butanediol]
mass density [kg/m3]
Settings	278.15 K	288.15 K	298.15 K	308.15 K	318.15 K	328.15 K	338.15 K	348.15 K	358.15 K
100 kPa	1013.4	1006.2	998.7	991.1	983.4	975.7	967.8	959.7	951.3
1000 kPa	1013.7	1006.5	999.1	991.5	983.8	976.2	968.3	960.2	952
5000 kPa	1015.7	1008.6	1001.2	993.7	986.1	978.6	970.7	962.8	954.6
10000 kPa	1018.1	1011.1	1003.8	996.5	988.9	981.5	973.9	966.2	958.1
15000 kPa	1020.5	1013.5	1006.3	999.1	991.7	984.4	976.8	969.2	961.4
20000 kPa	1022.8	1015.9	1008.8	1001.6	994.3	987.2	979.8	972.2	964.5
25000 kPa	1025	1018.2	1011.3	1004.1	997	989.9	982.6	975.2	967.5
30000 kPa	1027.2	1020.5	1013.6	1006.5	999.4	992.5	985.3	978	970.5
35000 kPa	1029.2	1022.7	1015.9	1008.9	1001.9	995.1	987.9	980.7	973.5
40000 kPa	1031.2	1024.7	1018.2	1011.2	1004.4	997.6	990.5	983.4	976.2
45000 kPa	1033.3	1026.7	1020.3	1013.5	1006.7	999.9	993.1	986.1	978.8
50000 kPa	1035.3	1028.8	1022.5	1015.7	1009	1002.2	995.5	988.6	981.4
55000 kPa	1037.3	1030.8	1024.5	1017.9	1011.3	1004.7	997.9	991.1	984
60000 kPa	1039.2	1033	1026.7	1020	1013.5	1006.9	1000.3	993.4	986.5

OCCO [1,2-ethanediol]
mass density [kg/m3]
Settings	278.15 K	288.15 K	298.15 K	308.15 K	318.15 K	328.15 K	338.15 K	348.15 K	358.15 K
100 kPa	1122.4	1115.8	1109	1102.2	1095.2	1088.2	1080.9	1073.6	1066.1
1000 kPa	1122.6	1116	1109.2	1102.4	1095.4	1088.3	1081.2	1073.9	1066.2
5000 kPa	1124.1	1117.6	1110.9	1104.1	1097.1	1090.2	1083.1	1075.8	1068.2
10000 kPa	1126	1119.5	1112.9	1106.1	1099.2	1092.3	1085.4	1078.1	1070.7
15000 kPa	1127.8	1121.5	1114.9	1108.2	1101.3	1094.4	1087.6	1080.4	1073.1
20000 kPa	1129.6	1123.3	–	–	–	–	1089.8	1082.7	1075.4
25000 kPa	1131.4	1125.2	1118.7	1112.1	1105.3	1098.6	1091.9	1084.9	1077.8
30000 kPa	1133.1	1127	1120.6	1114	1107.3	1100.6	1094	1087	1079.9
35000 kPa	1134.8	1128.8	1122.4	1115.9	1109.3	–	–	–	1082.1
40000 kPa	1136.6	1130.6	1124.3	1117.7	1111.2	1104.6	1097.9	1091.3	1084.3
45000 kPa	1138.2	1132.3	1126.1	1119.6	1113.1	1106.5	1099.9	1093.4	1086.5
50000 kPa	1139.9	1134.1	1127.8	1121.4	1115	1108.4	1101.9	1095.3	–
55000 kPa	1141.6	1135.7	1129.6	1123.2	–	–	1103.9	1097.3	1090.7
60000 kPa	1143.3	1137.4	1131.3	1125	1118.6	1112.1	1105.8	1099.4	1092.7

CC(O)CO (stereo not drawn) [1,2-propanediol]
mass density [kg/m3]
Settings	278.15 K	288.15 K	298.15 K	308.15 K	318.15 K	328.15 K	338.15 K	348.15 K	358.15 K
100 kPa	1047.1	1039.9	1032.5	1025.3	1017.7	1010	1002.2	994.1	985.8
1000 kPa	1047.3	1040.2	1032.9	1025.5	1018	1010.3	1002.4	994.5	986.2
5000 kPa	1049.2	1042.1	1034.8	1027.5	1020.2	1012.7	1004.8	996.9	988.8
10000 kPa	1051.2	1044.4	1037.2	1030.1	1022.8	1015.4	1007.6	999.9	991.9
15000 kPa	1053.4	1046.7	1039.6	1032.5	1025.4	1018	1010.4	1002.8	995
20000 kPa	1055.5	1048.9	1041.9	1034.9	1027.9	1020.6	1013	1005.5	997.8
25000 kPa	1057.6	1051.1	1044.1	1037.2	1030.3	1023.1	1015.6	1008.2	1000.6
30000 kPa	1059.6	1053.2	1046.3	1039.5	1032.7	1025.6	1018.2	1010.9	1003.4
35000 kPa	1061.6	1055.4	1048.4	1041.6	1035	1027.9	1020.7	1013.4	1006
40000 kPa	1063.6	1057.4	1050.6	1043.8	1037.2	1030.3	1023.2	1016	1008.5
45000 kPa	1065.6	1059.4	1052.5	1046	1039.4	1032.5	1025.5	1018.4	1011.2
50000 kPa	1067.5	1061.4	1054.6	1048.1	1041.5	1034.7	1027.9	1020.9	1013.6
55000 kPa	1069.3	1063.4	1056.6	1050.1	1043.6	1036.9	1030.2	1023.2	1016.1
60000 kPa	1071.4	1065.3	1058.5	1052.2	1045.7	1039	1032.4	1025.6	1018.5
